Measured values reported in patent publication US10758609B2, “Cross-reactive T-cell epitopes of HIV, SIV, and FIV for vaccines in humans and cats” (priority 2015, dated 2020).
Residues, ends and D or L forms follow the SMILES beside them.

Columns and labels:
[1] = system: CD4^+ T cells from HIV^+ subjects; settings: HIV+ human subjects; for CyCD4: CD4+ T-cell cytolysin/cytotoxins (perforin, GrzA & B), frequency of responders: HIV-1 epitope peptide, threshold ≥0.2%
Description: (§1) The overlapping peptide pools of FIV and HIV-1 structural and enzyme proteins were used to stimulate the […] (PBMC) and the T cells from HIV^+ subjects as previously described for epitope mapping of HIV-1 and FIV p24 and reverse transcriptase (RT) (Sanou et al., 2013; Roff et al., 2015). The individual peptides in those peptide pools with positive responses to either interferon-γ (IFNγ) production and/or T-cell proliferation were determined with IFNγ ELISpot analysis and CFSE-based CD3^+CD4^+ and CD3^+CD8^+ T-cell proliferation analyses followed by the FACS-based intracellular staining (ICS) for cytolysin (perforin) and cytotoxin (granzyme A [GrzA] and GrzB) (Sanou et al., 2013; Roff et al., 2015). Besides viral p24 and RT proteins, the identical approach was used to identify anti-HIV/FIV T-cell epitopes on viral matrix (MA), nucleocapsid (NC), protease (PR), RNAase, integrase (IN), surface envelope (SU Env), and transmembrane envelope (TM Env) (FIG. 12).
(§2) Since our goal is to develop HIV vaccine for human use, the HIV peptides (Table 10) counterpart of the cross-reactive FIV peptides shown in Table 9 were tested with PBMC and T cells from HIV^+ subjects. The immune functions analyzed were human IFNγ production by ELISpot, cytolysin/cytotoxin production by ICS, and CFSE-based proliferation of CD3^+CD4^+ and CD3^+CD8^+ T cells from HIV^+ subjects (Table 10, the first set of results). In addition, the Los Alamos National Laboratories (LANL) database was used to identify the HLA allele(s) of the HIV epitope sequence with CTL activity that can exist within the sequence of the conserved counterpart HIV peptide (Table 9, LANL CTL). The bold HLA class-I supertypes and the bold 2-digit alleles are those on the “Optimal CD8^+ CTL Epitopes” list and those without bold are alleles for potential CTL epitope. […] The HLA class II such as HLA-DRB1 has yet to be fully classified into supertypes, and therefore the 4-digit resolution nomenclatures for the HLA-DRB1 alleles are shown.
(§3) The counterpart HIV-1 peptides of the FIV peptides were also tested for immunogenicity using PBMC and T cells from HIV^+ human subjects. […] The HRT7-1 and HRT7-2 were also tested with cells from HIV^+ subjects on ART. The threshold for positive IFNγ ELISpot response is ≥75 spot-forming units (SFU) per 10^6 PBMC. The threshold for CFSE-based CD4^+ (CD4^+ T) and CD8^+ (CD8^+ T) T-cell proliferation is ≥2% CD4^+ T-cell CFSE^low or CD8^+ T-cell CFSE^low. The threshold of intracellular cytokine staining (ICS) of FACS-based cytolysin (perforin) and cytotoxins (granzymes A and B) in CD4^+ T cells (CyCD4) and CD8^+ T cells (CyCD8) is ≥0.2%. […] The nine HIV-1 peptides in black are the counterpart FIV peptides used in the current MAP vaccine trial, whereas the 13 peptides in blue were not.

[2] = system: CD8^+ T cells from HIV^+ subjects; assay: FACS-based intracellular staining (ICS) for cytolysin (perforin) and cytotoxins (GrzA, GrzB) in CD8+ T cells; settings: HIV+ human subjects; for CyCD8: CD8+ T-cell cytolysin/cytotoxins (perforin, GrzA & B), frequency of responders: HIV-1 epitope peptide, threshold ≥0.2%
Description: as §1, §2
(§4) The threshold for positive IFNγ and IL2 ELISpot responses is ≥50 spot-forming units (SFU) per 10^6 PBMC. The threshold for CFSE-based CD4^+ and CD8^+ T-cell proliferation is ≥2% CD4^+ T-cell CFSE^low or CD8^+ T-cell CFSE^low. The threshold of FACS-based intracellular cytokine staining (ICS) is ≥0.2%. […] The nine FIV peptides in black were used in the current MAP vaccine trial, whereas the 13 peptides in blue were not used. […] The MAPs and their corresponding peptide(s) were also tested for their ability to enhance or suppress in vitro FIV infection of feline PBMC (E/S of peptides and E/S of MAP).
as §3

[3] = system: CD3^+CD8^+ T cells from HIV^+ subjects; assay: CFSE-based CD3+CD8+ T-cell proliferation, HIV+ human subjects
Description: as §1, §2, §4, §3

[4] = system: CD3^+CD4^+ T cells from HIV^+ subjects; assay: CFSE-based CD3+CD4+ T-cell proliferation, HIV+ human subjects
Description: as §1, §2, §4, §3

PBMC from HIV^+ subjects = assay: IFNγ ELISpot of PBMC from HIV+ human subjects; assay type: cell-based
Description: as §1, §2
In addition, these peptides were also analyzed for IFNγ production, CD4^+ and CD8^+ T-cell proliferation, and cytolysin (perforin) and cytotoxin (granzyme A (GrzA) and GrzB)) mRNA production of PBMC or T cells from 8-30 HIV^+ human subjects. The frequency of responders is based on the individual responses of the vaccinated cats or HIV^+ human subjects after subtraction of the average of the responses of PBMC or T cells from 6-8 non-vaccinated cats or 8-20 HIV-negative human subjects.
as §4
The counterpart HIV-1 peptides of the FIV peptides were also tested for immunogenicity using PBMC and T cells from HIV^+ human subjects. […] The HRT7-1 and HRT7-2 were also tested with cells from HIV^+ subjects on ART. The threshold for positive IFNγ ELISpot response is ≥75 spot-forming units (SFU) per 10^6 PBMC. The threshold for CFSE-based CD4^+ (CD4^+ T) and CD8^+ (CD8^+ T) T-cell proliferation is ≥2% CD4^+ T-cell CFSE^low or CD8^+ T-cell CFSE^low. The threshold of intracellular cytokine staining (ICS) of FACS-based cytolysin (perforin) and cytotoxins (granzymes A and B) in CD4^+ T cells (CyCD4) and CD8^+ T cells (CyCD8) is ≥0.2%.

[5] = HIV-1 epitope peptide, threshold ≥2% CFSElow

Compound | CyCD4: CD4+ T-cell cytolysin/cytotoxins (perforin, GrzA & B), frequency of responders [1] | CyCD8: CD8+ T-cell cytolysin/cytotoxins (perforin, GrzA & B), frequency of responders [2] | CyCD4 (cytolysin and cytotoxin production of CD4+ T cells), frequency of responders ([1]; HIV-1 peptides) | CyCD7, frequency of responders ([2]; HIV-1 peptides) | CD8+ T proliferation, frequency of responders [3, 5] | CD8^+ T (T-cell proliferation), frequency of responders ([3]; HIV-1 peptides) | CD4+ T proliferation, frequency of responders [4, 5] | CDC4^+ T (T-cell proliferation), frequency of responders ([4]; HIV-1 peptides) | IFNγ, frequency of responders (PBMC from HIV^+ subjects; HIV-1 epitope peptide, threshold ≥75 SFU per 10^6 PBMC) | IFNγ, frequency of responders (PBMC from HIV^+ subjects; HIV-1 peptides)
CSCC[C@H](NC(=O)[C@@H](NC(=O)[C@H](CC(N)=O)NC(=O)[C@H](CC(C)C)NC(=O)[C@H](CC(=O)O)NC(=O)[C@H](CCC(N)=O)NC(=O)[C@@H]1CCCN1)[C@@H](C)O)C(=O)N[C@@H](CC(C)C)C(=O)N[C@@H](CC(N)=O)C(=O)N[C@H](C(=O)N[C@H](C(=O)NCC(=O)NCC(=O)N[C@@H](Cc1c[nH]cn1)C(=O)N[C@@H](CCC(N)=O)C(=O)O)C(C)C)[C@@H](C)O [Hp4-3] (H-PQDLNTMLNTVGGHQ-OH; N-terminus and C-terminus assumed) | − (0%-1.4% (−)) | ++ (25.1%-40% (++)) |  |  |  |  |  |  |  | 
CSCC[C@H](NC(=O)[C@H](Cc1c[nH]c2ccccc12)NC(=O)[C@H](CC(N)=O)NC(=O)[C@H](CCCCN)NC(=O)[C@@H](NC(=O)[C@H](CCC(=O)O)NC(=O)[C@H](CCC(N)=O)NC(=O)[C@H](CO)NC(=O)[C@H](C)N)C(C)C)C(=O)N[C@H](C(=O)N[C@@H](CCC(=O)O)C(=O)N[C@H](C(=O)N[C@@H](CC(C)C)C(=O)N[C@@H](CC(C)C)C(=O)N[C@H](C(=O)O)C(C)C)[C@@H](C)O)[C@@H](C)O [Hp14-3 (15-2)] (H-ASQEVKNWMTETLLV-OH) | ++++ (>54% (++++)) | ++++ (>54% (++++)) |  |  |  |  |  |  |  | 
KKDSTKWRKLVDFRE [HRT3-3] | ++++ (>54% (++++)) | ++++ (>54% (++++)) | ++++ (>54% (++++)) | ++++ (>54% (++++)) | +++ (40.1%-54% (+++)) | +++ (40.1%-54% (+++)) | ++ (25.1%-40% (++)) | ++ (25.1%-40% (++)) | + (12.5%-25% (+)) | + (12.5%-25% (+))
